Measurements published in patent US6218380A, “Pharmaceutical compositions” (SmithKline Beecham p.l.c., priority 1991, dated 2001).
Where a name gives a salt, the structure may show the parent alone.

Columns and labels:
Klebsiella aerogenes A = assay: Antibacterial synergism, microtitre MIC (Example 42); type: cell-based; details: method of Example 42; unit not given
Proteus mirabilis C889 = assay: M.I.C. with clavulanic acid methyl ester (Example 32); type: cell-based
[1] = test system: Staphylococcus aureus (Russell); assay: as above; type: cell-based
Klebsiella aerogenes 62 = assay: Antibacterial synergism, microtitre MIC (Example 42); type: cell-based; details: method of Example 42; unit not given
[2] = test system: Klebsiella aerogenes E 70; assay: as above; type: cell-based; details: method of Example 42; unit not given
[3] = test system: strains of Klebsiella aerogenes A; assay: Growth inhibition, penicillins with synergist (description); type: cell-based
Staphylococcus aureus = assay: Antibacterial synergism, microtitre MIC (Example 42); type: cell-based; details: method of Example 42
[4] = Hydrolysis of ester to clavulanic acid in pH 7 buffer; type: physicochemical; details: water buffered to pH7
Experimental: The reaction was followed by paper chromatography (bioautographic system). Using the butanol/ethanol/water system to follow the reaction over a period of 2 hours the zone of the methyl ester of Rf 0.79 decreased in size as the zone of clavulanic acid at Rf 0.12 increased.

[5] = Blood and tissue levels in female mice; type: in vivo; details: oral administration of 100 mg/kg of the sodium salt
[6] = test system: β-lactamase producing strains of Proteus mirabilis and Staphylococcus aureus; assay: Synergism with cephaloridine (properties of clavulanic acid); type: cell-based
[7] = test system: β-lactamase producing strains of Escherichia coli, Klebsiella aerogenes and Staphylococcus aureus; assay: Synergism with ampicillin (properties of clavulanic acid); type: cell-based
[8] = test system: strains of Staphylococcus aureus; assay: Growth inhibition (properties of clavulanic acid); type: cell-based

## CC1(C)S[C@@H]2[C@H](NC(=O)[C@H](N)c3ccccc3)C(=O)N2[C@H]1C(=O)O [Ampicillin, ampicillin]
Klebsiella aerogenes A
  MIC of Ampicillin + 5 μg/ml of Benzyl Ester of clavulanic acid: 1.9
  MIC of Ampicillin + 5 μg/ml of Methyl Ester of clavulanic acid: 1.9
Proteus mirabilis C889
  M.I.C. for ampicillin in the presence of 5 μg/ml. clavulanic acid methyl ester: 31 µg/mL
[1]
  M.I.C. of antibiotic in the presence of 1.0 μg/ml. clavulanic acid methyl ester: < 0.4 µg/mL
Klebsiella aerogenes 62
  MIC of Ampicillin + 5 μg/ml of Benzyl Ester of clavulanic acid: 3.9
  MIC of Ampicillin + 5 μg/ml of Methyl Ester of clavulanic acid: 3.9
[2]
  MIC of Ampicillin + 5 μg/ml of Benzyl Ester of clavulanic acid: 3.9
  MIC of Ampicillin + 5 μg/ml of Methyl Ester of clavulanic acid: 3.9

## CC1(C)S[C@@H]2[C@H](NC(=O)Cc3ccccc3)C(=O)N2[C@H]1C(=O)O [Benzylpenicillin, benzylpenicillin]
[3]
  Concentration of penicillin that inhibits growth when 5 μg/ml. of clavulanic acid is also present: less than 12.5 μg/ml

## O=C(Cc1cccs1)N[C@@H]1C(=O)N2C(C(=O)[O-])=C(C[n+]3ccccc3)CS[C@H]12 [Cephaloridine, cephaloridine]
Staphylococcus aureus
  Minimum Inhibitory Concentrations, cephaloridine in presence of 5 μg/ml clavulanic acid sodium salt: 3.7 µg/mL

## COC(=O)[C@H]1/C(=C/CO)O[C@@H]2CC(=O)N21 [clavulanic acid methyl ester]
[4]
  Hydrolysis to clavulanic acid: slowly hydrolyse to clavulanic acid

## O=C(O)[C@H]1/C(=C/CO)O[C@@H]2CC(=O)N21 [clavulanic acid sodium salt, 3-(β-hydroxyethylidine)-7-oxo-4-oxa-1-azabicyclo[3,2,0]heptane-2-carboxylic acid sodium salt]
[5]
  Levels of clavulanic acid: useful levels

## O=C(O)[C@H]1/C(=C/CO)O[C@@H]2CC(=O)N21 [clavulanic acid, Z-(2R,5R)-3-(β-hydroxyethylidene)-7-oxo-4-oxa-1-azabicyclo[3,2,0]heptane-2-carboxylic acid]
[6]
  Synergism of the antibacterial effect of cephaloridine: able to synergise the antibacterial effect of cephaloridine
[7]
  Synergism of the antibacterial effect of ampicillin: able to synergise the antibacterial effect of ampicillin
[8]
  Inhibition of growth of strains of Staphylococcus aureus: able to inhibit the growth
